Measurements taken from US5445951A, “Regioselective enzymatic deacylation of sucrose esters in anhydrous organic media” (priority 1993, dated 1995).
Like-named read-outs stand apart in the source and are kept apart here.

Tests used:
[1] = test system: lipase AY 30; assay: Effect of the solvent on lipase AY 30 catalyzed deacylation of SOP; type: biochemical, Candida cylindracea; settings: for ShexaP (4.2 min) / SheptaP's (8.9 min) / SheptaP's (9.4 min) / SheptaP's ([…]): lipase AY 30, 24 hrs; for ShexaP (4.2 min): HPLC peak 4.2 min; for SheptaP's (8.9 min): HPLC peak 8.9 min; for SheptaP's (9.4 min): HPLC peak 9.4 min; for SheptaP's ([…]): HPLC peak […]; for SOA: lipase AY 30, solvent as labelled, 200 mM butanol, 24 hrs, peak 21.4 min; for SheptaP's ([…]): HPLC peak 8.2 min
Protocol: Identical SOP deacylations were performed with lipase AY 30 or protease type XXIII in numerous anhydrous organic solvents, as shown in Tables 12 and 13.
(§1) Solvent screening for SOP deacylation. A scintillation vial was charged successively with 100 mg of lipase AY 30 or protease type XXIII as described and 1.0 ml of 20 mM sucrose octapropionate (SOP) and 200mM butanol dissolved in an organic solvent. Following a 5 sec sonication, the vial was incubated in a controlled-temperature shaker at 45° C. and 300 RPM for 24 hrs. A 200 μl aliquot of the reaction mixture was withdrawn and centrifuged. The supernatant was collected and evaporated under a stream of N2. The residue was reconstituted in 200 μl of acetonitrile and 10 μl of this solution was analyzed by HPLC.

[2] = n-octanol/water, cited from earlier work
[3] = test system: lipase AY 30; assay: Effect of the solvent on lipase AY 30 SOA deacetylation; type: biochemical, Candida cylindracea; settings: lipase AY 30, solvent as labelled, 24 hrs
Protocol: (§2) Identical enzyme catalyzed SOA deacetylations were run in numerous anhydrous solvents. After 24 hrs incubation an aliquot was analyzed by HPLC.
as §1, with “Enzyme and Solvent” for “Solvent”, “Screening” for “screening”, “SOA Deacetylation.” for “SOP deacylation.”, “powdered enzyme as received” for “lipase AY 30”, “prepared” for “protease type XXIII”, “octaacetate (SOA)” for “octapropionate (SOP) and 200mM butanol”

[4] = target: T1, alcalase (Bacillus licheniformis, UniProt P00780); assay: Solvent effect on alcalase catalyzed deacetylation of SOA; type: biochemical; settings: 24 hrs; for SheptaA: total of 1'-OH and 6'-OH heptaacetates; for SOA / ShexaA: solvent as labelled
T1 construct: purchased Novo Nordisk (gift)
T1 sequence (P00780 106-379): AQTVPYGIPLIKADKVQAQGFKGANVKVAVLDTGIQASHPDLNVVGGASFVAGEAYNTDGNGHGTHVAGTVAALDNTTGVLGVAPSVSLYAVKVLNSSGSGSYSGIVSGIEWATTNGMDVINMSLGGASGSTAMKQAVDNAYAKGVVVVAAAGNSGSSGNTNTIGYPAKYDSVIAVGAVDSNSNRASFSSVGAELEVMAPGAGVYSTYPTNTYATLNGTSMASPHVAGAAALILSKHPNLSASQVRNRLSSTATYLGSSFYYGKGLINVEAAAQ
Protocol: as §2
Enzyme Precipitation. Alcalase was prepared by adding 37.5 ml cold acetone (-20° C.) to 25 ml of alcalase solution as supplied by Novo. The aqueous acetone was decanted and the residue dissolved in 25 ml of pH 9.0 glycine--NaOH buffer. The pH of this solution was adjusted to 9.0 with a few drops of dilute NaOH solution. Cold acetone (37.5 ml at -20° C.) was added to the buffered alcalase solution and the precipitate collected by filtration on a medium porosity glass funnel and dried overnight at 2 millitorr. The resulting pellet was ground to a fine powder and stored at 4° C. over saturated aqueous potassium carbonate (RH: 43%) for 24 hrs.
as §1, with “Enzyme and Solvent” for “Solvent”, “Screening” for “screening”, “SOA Deacetylation.” for “SOP deacylation.”, “powdered enzyme as received” for “lipase AY 30”, “prepared” for “protease type XXIII”, “octaacetate (SOA)” for “octapropionate (SOP) and 200mM butanol”

[5] = test system: lipase AY 30 deposited on Hyflo Super Cell; assay: Solvent effect on lipase AY 30 deposited on Hyflo Super Cell catalyzed deacetylation of SOA; type: biochemical, Candida cylindracea; settings: immobilized lipase AY 30, 24 hrs
Protocol: (§3) Alcalase and lipase AY 30 were deposited on Hyflo Super Cell and used as catalysts for SOA deacetylation reactions in several anhydrous solvents.
(§4) Enzyme immobilization. The pH of a solution of 900 mg of buffered alcalase in 18 ml of water was adjusted to 9.0 with dilute NaOH. Hyflo super cell (6 g) was added and the slurry thoroughly mixed. […] Lipase AY 30 was immobilized in the same manner except that the protein solution was adjusted to pH 7.0 with sodium phosphate.
as §1, with “Enzyme and Solvent” for “Solvent”, “Screening” for “screening”, “SOA Deacetylation.” for “SOP deacylation.”, “powdered enzyme as received” for “lipase AY 30”, “prepared” for “protease type XXIII”, “octaacetate (SOA)” for “octapropionate (SOP) and 200mM butanol”

[6] = test system: proleather; assay: Solvent effect on proleather catalyzed deacetylation of SOA; type: biochemical, Bacillus subtilis; settings: 24 hrs; for SheptaA: total of 1'-OH and 6'-OH heptaacetates; for SOA / ShexaA: solvent as labelled
Protocol: as §2
(§5) The pH of commercial powdered enzymes was adjusted in the following way: The enzyme (3 g) was dissolved in 25 ml of an appropriate buffer and the pH adjusted with dilute NaOH or citric/phosphoric acid solution. Cold acetone (37.5 ml at -20° C.) was added and the precipitate collected on a medium porosity glass funnel and dried overnight at 2 millitorr. The protein pellet was ground to a fine powder and equilibrated at 4° C. over saturated aqueous potassium carbonate (RH: 43%) for 24 hrs.
as §1, with “Enzyme and Solvent” for “Solvent”, “Screening” for “screening”, “SOA Deacetylation.” for “SOP deacylation.”, “powdered enzyme as received” for “lipase AY 30”, “prepared” for “protease type XXIII”, “octaacetate (SOA)” for “octapropionate (SOP) and 200mM butanol”

[7] = test system: lipase AP 12; assay: Solvent effect on lipase AP 12 catalyzed deacetylation of SOA; type: biochemical, Aspergillus niger; settings: lipase AP 12, solvent as labelled, 24 hrs
Protocol: as §2, §5
as §1, with “Enzyme and Solvent” for “Solvent”, “Screening” for “screening”, “SOA Deacetylation.” for “SOP deacylation.”, “powdered enzyme as received” for “lipase AY 30”, “prepared” for “protease type XXIII”, “octaacetate (SOA)” for “octapropionate (SOP) and 200mM butanol”

[8] = test system: alcalase deposited on Hyflo Super Cell; assay: Solvent effect on alcalase deposited on Hyflo Super Cell catalyzed deacetylation of SOA; type: biochemical, Bacillus licheniformis; settings: immobilized alcalase, 4 hour incubation; for SheptaA: total of 1'-OH and 6'-OH heptaacetates
Protocol: as §3, §4
Enzyme and Solvent Screening for SOA Deacetylation. A scintillation vial was charged successively with 100 mg of powdered enzyme as received or prepared as described and 1.0 ml of 20 mM sucrose octaacetate (SOA) dissolved in an organic solvent. […] A 200 μl aliquot of the reaction mixture was withdrawn and centrifuged. The supernatant was collected and evaporated under a stream of N2. The residue was reconstituted in 200 μl of acetonitrile and 10 μl of this solution was analyzed by HPLC.

| Structure (SMILES) | ShexaP (4.2 min) [1] [%] | SheptaP's (8.9 min) [1] [%] | SheptaP's (9.4 min) [1] [%] | SheptaP's ([…]) [1] [%] | SOA [1] [%] | log P ([2]; from Laane et al.) | SOA [3] [%] | SheptaA [3] [%] | ShexaA [3] [%] | SheptaA [4] [%] | SOA [4] [%] | ShexaA [4] [%] | SOA [5] [%] | SheptaA [5] [%] | SheptaA [6] [%] | SOA [6] [%] | ShexaA [6] [%] | SOA [8] [%] | ShexaA [8] [%] | SheptaA [8] [%] | also measured |
| --- | --- | --- | --- | --- | --- | --- | --- | --- | --- | --- | --- | --- | --- | --- | --- | --- | --- | --- | --- | --- | --- |
| CCCCCCCO [heptanol] | 0 | 0 | 0.7 | 1.4 | 97.9 | 2.5 | 93.4 | 6.0 | 0.6 | – | – | – | – | – | – | – | – | – | – | – | – |
| CCCCCC [hexane] | 5.8 | 0.6 | 5.7 | 8.6 | 79.3 | 3.5 | – | – | – | – | – | – | – | – | – | – | – | – | – | – | – |
| CCCCOC(C)=O [n-butyl acetate] | 0 | 0 | 0.7 | 1.4 | 97.9 | 1.7 | 95.2 | 4.6 | 0.4 | 2.4 | 97.6 | 0 | 97.6 | 2.4 | 16.5 | 81.3 | 2.2 | – | – | – | SOA [7]: 97.6%; SheptaA [7]: 2.4%; ShexaA [7]: 0% |
| CCCCCCCC [octane] | 7.7 | 0.5 | 2.9 | 8.9 | 80.0 | 5.0 | – | – | – | – | – | – | – | – | – | – | – | – | – | – | – |
| CCCCCCCCO [octanol] | 0 | 0 | 1.1 | 1.8 | 97.1 | – | – | – | – | – | – | – | – | – | – | – | – | – | – | – | log P [2]: 3.0 |
| CCC(C)(C)OC [t-amyl methyl ether] | – | – | – | – | – | 1.9 | 45 | 37.1 | 17.9 | – | – | – | – | – | – | – | – | – | – | – | – |
| CC(=O)OC(C)(C)C [t-butyl acetate] | – | – | – | – | – | 1.7 | – | – | – | – | – | – | – | – | – | – | – | 98.2 | 0 | 1.8 | – |
| CCOC(C)(C)C [t-butyl ethyl ether] | – | – | – | – | – | 1.9 | 40.8 | 38.1 | 21.1 | – | – | – | – | – | 2.8 | – | 0 | – | – | – | – |
| COC(C)(C)C [t-butyl methyl ether] | 0.8 | 0.3 | 5.9 | 4.3 | 88.7 | 1.3 | 61.6 | 28.8 | 9.6 | 6.8 | 92.6 | 0.6 | 96.0 | 4.0 | 24.4 | 72.4 | 3.2 | 97.3 | 0 | 2.7 | – |
| Cc1ccccc1 [toluene] | 0.2 | 0 | 1.2 | 1.3 | 97.3 | – | 78.7 | 16.5 | 4.8 | 6.0 | 93.8 | 0.2 | 94.5 | 5.5 | 15.2 | 82.8 | 2.0 | 97.8 | 0 | 2.2 | SOA [7]: 94.2%; SheptaA [7]: 5.8%; ShexaA [7]: 0% |
